Assay [1] has as its system cerebellar granule progenitor cells (GCPs). As to the kind of experiment: BrdU incorporation in Shh-treated cerebellar granule cell progenitors. As to conditions: Shh 3 μg/ml, 48 h. Format: cell-based, mouse. The protocol: FIG. 10. Cerebellar granule progenitor cells (GCPs) were treated with Shh (Recombinant mouse Sonic Hedgehog, amino-terminal peptide, 3 μg/ml) and with different concentrations of Glabrescione B, as indicated, for 48 h. Inhibition of cell proliferation was measured as percentage of BrdU incorporation in comparison to DMSO (0.5%, vehicle) treated sample.
A biological assay was performed in cerebellar neural progenitors cells obtained from 4-days-old mice, when they are actively proliferating under Sonic Hedgehog (Shh) stimulus. As expected, treatment of these cells with Shh increased the proliferation rate, as evaluated by BrdU-incorporation assay. […] To further evaluate the antiproliferative effect of Glabrescione B, human MB cell lines D283 were treated with Glabrescione B at different concentrations. […] The biomolecule was active, as shown by the growth rate inhibition (70-95%).
Another experiment to assess whether Glabrescione B also regulates Hh pathway in a physiological context was carried out in cerebellar granule cells precursors (GCPs) isolated from 4-days-old mice according to established protocols (Wechsler-Reya and Scott, 1999). Briefly, cerebella were removed aseptically, cut into small pieces, and incubated at room temperature for 15 min in digestion buffer [Dulbecco's PBS (Invitrogen, Gaithersburg, Md.) with 0.1% trypsin, 0.2% EDTA, and 100 μg/ml DNase]. […]

For assay [2], the system named is ASZ001 basal cell carcinoma cells. As to the kind of experiment: ASZ001 BCC cell growth, cell death and Gli1 mRNA. Format: cell-based. To be noted: in vitro treatment. The procedure: FIG. 15. Inhibition of Gli-dependent BCC tumor cell growth. ASZ001 BCC cells were treated with Glabrescione B (GlaB) 5 μM or DMSO only (A) or with Glabrescione B 1, 5 and 10 μM (GlaB) or DMSO only (B). After the indicated times, a trypan blue count was performed to determine the growth rate (A) or the percentage of cell death (B). (C) Gli1 mRNA expression levels were determined by qRT-PCR after treatment of ASZ001 BCC cells with Glabrescione B (GlaB) or DMSO only for the indicated times. Results are expressed in arbitrary units as relative quantification normalized with endogenous control β2-microglobulin and HPRT. […] Error bars indicate SD. *P<0.05 vs DMSO.
Total RNA was isolated with Trizol (Invitrogen, Eugene, Or, USA) and reverse transcribed with Superscript II reverse transcriptase and random hexamers (Invitrogen, Eugene, Or, USA). Quantitative real-time PCR (qRT-PCR) analysis of Gli1, Gli2, Ptch1, Ptch2, Nanog, Oct-4, Cyclin D1, Cyclin D2, Nmyc, HIP1, Sfrp1, Bmp2, IGF2, β-2 microglobulin, HPRT, mRNA expression was performed on each cDNA sample using the ABI Prism 7900HT Sequence Detection System employing Assay-on-Demand Reagents (Applied Biosystems, Foster City, Calif., USA). […]

Assay [3] concerns Ptch1+/− MB allografts. As to the kind of experiment: Ptch1+/− MB allograft in nude mice. It counts as in vivo, BALB/c nude mice. To be noted: 18 days. The text has this: FIG. 17. Glabrescione B inhibits Gli1-dependent MB tumor growth in vivo (Ptch1^+/− MB allografts). (A) Change of tumor volume during Glabrescione B (GlaB) or vehicle (CTR) treatment period (days 18). […] (C) qRT-PCR of Gli1 and Ptch1 mRNA expression levels normalized with endogenous control β2-microglobulin and HPRT.
Therefore, to verify the Glabrescione B efficacy to inhibit Hh-dependent tumor cell growth in vivo, we turned to an allograft model of MB cells. Spontaneous Medulloblastomas from Ptch1^+/− mice were isolated, minced, pipetted to obtain a single-cell suspension and grafted s.c. at the posterior flank of female BALB/c nude mice (nu/nu) (Charles River Laboratories, Lecco, Italy). Tumors were grown until a median size of ˜100 mm^3. Animals were randomly divided into two groups (n=6) and treated with solvent only (2-hydroxypropyl-β-cyclodextrin:ethanol, 3:1) or Glabrescione B in solvent (75 μmol/Kg) for 18 days (2-hydroxypropyl-β-cyclodextrin was purchased from Sigma Aldrich, St. Louis, Mo., USA). 2×10^6 ASZ001 BCC cells were resuspended in an equal volume of 154CF medium and Matrigel (BD Biosciences, Heidelberg, Germany) and injected s.c. at the posterior flank of female NOD/SCID mice (Charles River Laboratories, Lecco, Italy), as previously described (Eberl et al, 2012). Tumors were grown until a median size of ˜200 mm^3. Animals were randomly divided into two groups (n=6) and treated with solvent only (2-hydroxypropyl-β-cyclodextrin:ethanol, 3:1) or Glabrescione B in solvent (100 μmol/Kg) for 18 days. Tumor volumes change was calculated by the formula length×width×0.5×(length+width) (Lauth et al, 2007).
Nude mice were grafted with spontaneous primary MB from Ptch1^+/− mice and treated every second day with s.c. injections of Glabrescione B at a concentration of 75 μmol/Kg or solvent only (n=6 for each group).

A short description of assay [4]: NMR monitoring of direct interaction with Zn2+. Format: binding.

On to `COc1cc(OC)c2c(=O)c(-c3ccc(OCC=C(C)C)c(OCC=C(C)C)c3)coc2c1` [Glabrescione B, 3-(3′,4′-bis(3-methylbut-2-enyloxy)phenyl)-5,7-dimethoxy-4H-chromen-4-one], for which, in assay [1], the “Shh-induced proliferation (BrdU incorporation)” value is given as “antagonized this effect”. Moreover, in assay [2], the BCC cell proliferation result is “impaired”. Further, the “Gli1 mRNA in BCC cells” value in assay [2] (qRT-PCR) is reported as “suppression of Gli1 mRNA”. Besides, in assay [3] (75 μmol/Kg s.c. every second day), the tumor mass result is “significantly suppressed tumor mass”. For the same compound, in assay [3] (75 μmol/Kg s.c.), the “Gli1 mRNA levels in tumors” value is “reduction of Gli1 mRNA levels” and the “Ki67 staining in tumors” value was “decreased Ki67 staining”. Moreover, the “binding to Zn2+ (NMR)” value in assay [4] is given as “not capable of binding to the metal ions”.

Values taken from patent US10093642B2, “Multitarget hedgehog pathway inhibitors and uses thereof” (UNIVERSITA' DEGLI STUDI DI SIENA, priority 2013, dated 2018).
